Measurements as given in US9974761B2, “Medications for deposition on biological surfaces” (The Procter & Gamble Company, priority 2014, dated 2018).

Target: T1, human TRPM8 (UniProt Q8R4D5)
T1 construct: Receptor Activity TRPM8; Receptor Activity TRPM8; other: test compound at 0.001%; relative to WS5 control (30 microMolar); HEK 293 cells; other: test compound at 0.004%; other: test compound at 5.2E−5%; relative to WS5 control
Experiment: TRPM8 Protocol-FLIPR Assay (intracellular Ca2+)
Assay type: cell-based
Conditions: for TRPM8 Time Course Activity 50 sec: fluorescence at 50 sec; for TRPM8 Time Course Activity 50 sec % of WS5: vs 30 uM WS-5

Structure (SMILES): CC(C)[C@@H]1CC[C@@H](C)C[C@H]1C(=O)NCC(NC(=O)[C@@H](C)N)c1ccccc1 (single isomer, unassigned) [Compound 28 fraction 1]
- TRPM8 Time Course Activity 50 sec (dose 6.1 nM): 884.0
- TRPM8 Time Course Activity 50 sec (dose 12.2 nM): 3018.0
- TRPM8 Time Course Activity 50 sec (dose 24.4 nM): 1936.0
- TRPM8 Time Course Activity 50 sec (dose 48.8 nM): 2916.0
- TRPM8 Time Course Activity 50 sec (dose 97.6 nM): 3963.0
- TRPM8 Time Course Activity 50 sec (dose 195 nM): 5418.0
- TRPM8 Time Course Activity 50 sec % of WS5 (dose 390 nM): 75.5%
- TRPM8 Time Course Activity 50 sec (dose 390 nM): 7592.0
- TRPM8 Time Course Activity 50 sec % of WS5 (dose 781 nM): 97.3%
- TRPM8 Time Course Activity 50 sec (dose 781 nM): 9786.0
- TRPM8 Time Course Activity 50 sec % of WS5 (dose 1.563 uM): 110.5%
- TRPM8 Time Course Activity 50 sec (dose 1.563 uM): 11114.0
- TRPM8 Time Course Activity 50 sec % of WS5 (dose 3.125 uM): 115.7%
- TRPM8 Time Course Activity 50 sec (dose 3.125 uM): 11637.0
- TRPM8 Time Course Activity 50 sec % of WS5 (dose 6.25 uM): 121.6%
- TRPM8 Time Course Activity 50 sec (dose 6.25 uM): 12229.0
- TRPM8 Time Course Activity 50 sec % of WS5 (dose 12.5 uM): 123.6%
- TRPM8 Time Course Activity 50 sec (dose 12.5 uM): 12430.0
- TRPM8 Time Course Activity 50 sec % of WS5 (dose 25 uM): 129.7%
- TRPM8 Time Course Activity 50 sec (dose 25 uM): 13046.0
- TRPM8 Time Course Activity 50 sec % of WS5 (dose 50 uM): 123.5%
- TRPM8 Time Course Activity 50 sec (dose 50 uM): 12419.0
- TRPM8 Time Course Activity 50 sec % of WS5 (dose 100 uM): 125.7%
- TRPM8 Time Course Activity 50 sec (dose 100 uM): 12646.0
